From ChEMBL document CHEMBL5036347, “Design of the naphthyl-diarylpyrimidines as potent non-nucleoside reverse transcriptase inhibitors (NNRTIs) via structure-based extension into the entrance channel” (Eur J Med Chem, 2021)
Converted amounts (≈) assume the structure as drawn.

Experiments:
[1] = system: Human immunodeficiency virus 1; test: Antiviral activity against HIV1 harboring reverse transcriptase F227L/V106A mutant infected in human MT4 cells assessed as protection against virus-induced cytopathic effect incubated for 5 days by MTT assay; type: functional, organism-based; conditions: Human immunodeficiency virus 1, MT4, 120 h
[2] = system: Human immunodeficiency virus 1; test: Antiviral activity against HIV1 harboring reverse transcriptase L100I mutant infected in human MT4 cells assessed as protection against virus-induced cytopathic effect incubated for 5 days by MTT assay; type: functional, organism-based; conditions: Human immunodeficiency virus 1, MT4, 120 h
[3] = Selectivity index, ratio of CC50 for cytotoxicity against human MT4 cells to EC50 of Anti-HIV activity against HIV-1 IIIB infected in human MT4; type: toxicity, cell-based; conditions: read-out: Selectivity Index
[4] = Resistance fold, ratio of EC50 for HIV1 harboring reverse transcriptase L100I mutant […] to EC50 for wild type HIV1 […]; type: functional
[5] = Resistance fold, ratio of EC50 for HIV1 harboring reverse transcriptase Y188L mutant […] to EC50 for wild type HIV1 […]; type: functional
[6] = Resistance fold, ratio of EC50 for HIV1 harboring reverse transcriptase K103N mutant […] to EC50 for wild type HIV1 […]; type: functional
[7] = system: Human immunodeficiency virus 1; test: Antiviral activity against HIV1 harboring reverse transcriptase Y188L mutant infected in human MT4 cells assessed as protection against virus-induced cytopathic effect incubated for 5 days by MTT assay; type: functional, organism-based; conditions: Human immunodeficiency virus 1, MT4, 120 h
[8] = Cytotoxicity against human MT4 cells assessed as reduction in cell viability incubated for 5 days by MTT assay; type: cell-based; conditions: human, MT4 cells; time 5 day
[9] = Resistance fold, ratio of EC50 for HIV1 harboring reverse transcriptase E138K mutant […] to EC50 for wild type HIV1 […]; type: functional
[10] = system: Human immunodeficiency virus 1; test: Antiviral activity against HIV1 harboring reverse transcriptase E138K mutant infected in human MT4 cells assessed as protection against virus-induced cytopathic effect incubated for 5 days by MTT assay; type: functional, organism-based; conditions: Human immunodeficiency virus 1, MT4, 120 h
[11] = system: Human immunodeficiency virus 1; test: Antiviral activity against HIV1 harboring reverse transcriptase Y181C mutant infected in human MT4 cells assessed as protection against virus-induced cytopathic effect incubated for 5 days by MTT assay; type: functional, organism-based; conditions: Human immunodeficiency virus 1, MT4, 120 h
[12] = system: Human immunodeficiency virus 2; test: Anti-HIV activity against HIV2 ROD infected in human MT4 cells assessed as reduction in virus-induced cytopathic effect incubated for 5 days by MTT assay; type: functional, organism-based; conditions: Human immunodeficiency virus 2, ROD, MT4, 120 h
[13] = system: Human immunodeficiency virus 1; test: Anti-HIV activity against HIV-1 IIIB infected in human MT4 cells assessed as reduction in virus-induced cytopathic effect incubated for 5 days by MTT assay; type: functional, organism-based; conditions: Human immunodeficiency virus 1, IIIB, MT4, 120 h
[14] = Resistance fold, ratio of EC50 for HIV1 harboring reverse transcriptase F227L/V106A double mutant […] to EC50 for wild type HIV1 […]; type: functional
[15] = Resistance fold, ratio of EC50 for HIV1 harboring reverse transcriptase Y181C mutant […] to EC50 for wild type HIV1 […]; type: functional
[16] = system: Human immunodeficiency virus 1; test: Antiviral activity against HIV1 harboring reverse transcriptase K103N mutant infected in human MT4 cells assessed as protection against virus-induced cytopathic effect incubated for 5 days by MTT assay; type: functional, organism-based; conditions: Human immunodeficiency virus 1, MT4, 120 h
[17] = Resistance fold, ratio of EC50 for HIV1 harboring reverse transcriptase K103N/Y181C double mutant […] to EC50 for wild type HIV1 […]; type: functional
[18] = target: Human immunodeficiency virus type 1 reverse transcriptase (Human immunodeficiency virus 1, UniProt Q72547); test: Inhibition of wild type HIV1 reverse transcriptase using oligo(dT)16 as primer measured after 40 mins by picogreen-dye based spectrofluorimetric analysis
[19] = system: Human immunodeficiency virus 1; test: Antiviral activity against HIV1 harboring reverse transcriptase K103N/Y181C double mutant infected in human MT4 cells assessed as protection against virus-induced cytopathic effect incubated for 5 days by MTT assay; type: functional, organism-based; conditions: Human immunodeficiency virus 1, MT4, 120 h
[20] = Water solubility of compound at pH 7.4 at 0.1 to 10 mg by HPLC-UV analysis; type: physicochemical; conditions: dose 0.1-10 mg
[21] = Water solubility of compound at pH 7 at 0.1 to 10 mg by HPLC-UV analysis; type: physicochemical; conditions: dose 0.1-10 mg
[22] = Water solubility of compound at pH 2 at 0.1 to 10 mg by HPLC-UV analysis; type: physicochemical; conditions: dose 0.1-10 mg

| SMILES | EC50 [1] | EC50 [2] | selectivity ratio [3] | Ratio EC50 [5] | Ratio EC50 [6] | EC50 [7] | CC50 at 120 h [8] | Ratio EC50 [9] | EC50 [10] | EC50 [11] | EC50 [12] | EC50 [13] | Ratio EC50 [14] | Ratio EC50 [15] | EC50 [16] | Ratio EC50 [17] | IC50 [18] | EC50 [19] | other results |
| --- | --- | --- | --- | --- | --- | --- | --- | --- | --- | --- | --- | --- | --- | --- | --- | --- | --- | --- | --- |
| CNc1cc(Oc2c(OC)cc3cc(C#N)ccc3c2OC)nc(Nc2ccc(C#N)cc2)n1 | 10.6 µM | 0.51 µM | 4080 | 56 | 1 | 2.2 µM | 239 µM | 6 | 0.25 µM | 0.31 µM | 52.1 µM | 0.039 µM | 271 | 8 | 0.046 µM | 37 | 0.24 µM | 1.44 µM | Ratio EC50 [4]: 13 |
| CCCCNc1cc(Oc2c(OC)cc3cc(C#N)ccc3c2OC)nc(Nc2ccc(C#N)cc2)n1 | > 1000 µM | 0.63 µM | > 9600 | 119 | 1 | 3.12 µM | > 125 µM | 2 | 0.064 µM | – | > 1000 µM | – | >38461 | – | 0.031 µM | 58 | 0.17 µM | 1.52 µM | Ratio EC50 [4]: 24 |
| COc1cc2cc(C#N)ccc2c(OC)c1Oc1cc(NCC2CCOCC2)nc(Nc2ccc(C#N)cc2)n1 | 2.48 µM | 0.15 µM | > 10700 | 17 | 2 | 0.37 µM | > 125 µM | 4 | 0.064 µM | 0.053 µM | > 1000 µM | 0.022 µM | 113 | 2 | 0.016 µM | 11 | 0.2 µM | 0.24 µM | – |
| COc1cc2cc(C#N)ccc2c(OC)c1Oc1cc(NCCCO)nc(Nc2ccc(C#N)cc2)n1 | 1.63 µM | 0.31 µM | > 1630 | 31 | 1 | 0.44 µM | 23.5 µM | 4 | 0.055 µM | 0.11 µM | 4.1 µM | 0.014 µM | 113 | 8 | 0.012 µM | 16 | 0.19 µM | 0.23 µM | – |
| COc1cc2cc(C#N)ccc2c(OC)c1Oc1cc(N2CCC(O)C2)nc(Nc2ccc(C#N)cc2)n1.O=C(O)C(O)C(O)C(=O)O (stereo not given) | – | – | – | – | – | – | – | – | – | – | – | – | – | – | – | – | – | – | solubility [20]: 3 µg/mL; solubility [21]: < 1 µg/mL; solubility [22]: < 1 µg/mL |
| COc1cc2cc(C#N)ccc2c(OC)c1Oc1cc(NC2CCOCC2)nc(Nc2ccc(C#N)cc2)n1 | > 1000 µM | 1.51 µM | > 5970 | 65 | 1 | 2.62 µM | > 125 µM | 3 | 0.21 µM | 0.9 µM | > 1000 µM | 0.04 µM | >25000 | 23 | 0.09 µM | 108 | 0.3 µM | 4.34 µM | – |
| COc1cc2cc(C#N)ccc2c(OC)c1Oc1cc(NC(C)C)nc(Nc2ccc(C#N)cc2)n1 | – | – | > 10400 | – | 19 | – | > 125 µM | 2 | 0.047 µM | – | > 1000 µM | – | – | – | 0.47 µM | – | 0.14 µM | – | – |
| Br.COc1cc2cc(C#N)ccc2c(OC)c1Oc1cc(N2CCC(O)C2)nc(Nc2ccc(C#N)cc2)n1 (stereo not given) | – | – | – | – | – | – | – | – | – | – | – | – | – | – | – | – | – | – | solubility [20]: < 1 µg/mL; solubility [21]: < 1 µg/mL; solubility [22]: < 1 µg/mL |
| COc1cc2cc(C#N)ccc2c(OC)c1Oc1cc(N2CCC(O)C2)nc(Nc2ccc(C#N)cc2)n1.O=C(O)/C=C\C(=O)O (stereo not given) | – | – | – | – | – | – | – | – | – | – | – | – | – | – | – | – | – | – | solubility [20]: 5 µg/mL; solubility [21]: < 1 µg/mL; solubility [22]: < 1 µg/mL |
| O=C1Nc2ccc(Cl)cc2[C@@](C#CC2CC2)(C(F)(F)F)O1 [EFAVIRENZ] | 0.33 µM | 0.095 µM | – | – | – | 0.0073 µM | – | – | 0.0053 µM | 0.0074 µM | – | 0.0043 µM | – | – | 0.14 µM | – | – | 0.22 µM | – |
| Cc1cc(C#N)cc(C)c1Oc1nc(Nc2ccc(C#N)cc2)nc(N)c1Br [ETRAVIRINE] | 0.027 µM | 0.014 µM | – | – | – | 0.03 µM | – | – | 0.021 µM | 0.021 µM | – | – | – | – | 0.0038 µM | – | – | 0.052 µM | solubility [20]: 1 µg/mL (≈ 2.3 µM); solubility [21]: < 1 µg/mL; solubility [22]: 127 µg/mL (≈ 292 µM) |
| Nc1ccn([C@@H]2CS[C@H](CO)O2)c(=O)n1 [LAMIVUDINE] | 3.07 µM | 2.13 µM | > 15 | 0 | 1 | – | > 20 µM | 1 | 8.49 µM | 4.57 µM | – | 5.76 µM | 1 | 1 | – | 1 | – | 6.01 µM | Ratio EC50 [4]: 0.4 |
| Cc1ccnc2c1NC(=O)c1cccnc1N2C1CC1 [NEVIRAPINE] | – | – | – | – | – | – | – | – | 0.33 µM | 7.15 µM | – | 22 µM | – | – | 8.49 µM | – | – | – | – |
| Cc1cn([C@H]2C[C@H](N=[N+]=[N-])[C@@H](CO)O2)c(=O)[nH]c1=O [ZIDOVUDINE] | 0.031 µM | 0.01 µM | > 240 | 1 | 2 | 0.029 µM | > 2 µM | 2 | 0.051 µM | 0.031 µM | 0.02 µM | 0.029 µM | 1 | 1 | 0.032 µM | 1 | – | 0.033 µM | – |
